The text below walks through data of patent EP4741383A1, “COMPOUND AND USE THEREOF AS ANTI-CANCER DRUG” (Tyligand Bioscience (Shanghai) Limited, priority 2023, dated 2025).

Where only a bound is given, the exact number is not on record here.

The term IC50 denotes the concentration needed to halve the response being measured.

One assay relates to MV4-11. Briefly: CellTiter-Glo cell proliferation inhibition, MV4-11. The format is cell-based, human. The following applies: Homo sapiens; MV4-11 cells, 72 hours, CellTiter-Glo; read-out: IC50 (µM) M V4-11. From the text: (§1) In this study, the CellTiter-Glo® Luminescent Cell Viability Assay kit from Promega was used to evaluate the inhibitory effects of the disclosed compounds on the proliferation of cell lines KYSE520 (a human esophageal squamous cell carcinoma cell line dependent on SHP2 for growth), MeWo (a human malignant melanoma cell line), and MV4-11 (an RTK-mutant human acute monocytic leukemia cell line).
Using essentially the same experimental materials, MV4-11 cells (Nanjing Cobio Biotechnology Co., Ltd., Catalog #CBP60522) were treated similarly: when thawing the cells, the cryovial was rapidly shaken in a 37 °C water bath to thaw within 1 minute. The thawed cell suspension was mixed with IMDM culture medium containing 10% FBS (HyClone, Catalog #SH30228.01), centrifuged at 1000 rpm for 7 minutes, and the supernatant was discarded. The cell pellet was resuspended in 5 mL of complete culture medium (IMDM medium containing 10% FBS) placed in a cell culture flask with 25 cm^2 of bottom area, and cultured in a cell culture incubator at 37 °C, 95% humidity, and 5% CO2. Cell passaging was performed when the cell density reached approximately 10^6 cells/mL. During cell passaging, the old cell suspension was thoroughly mixed, 1/5 of the cell suspension was retained, and 4 mL of new complete culture medium was added. After thorough mixing, the cells were placed back in the cell culture incubator for further culture. Cell plating was performed when the cell density again reached approximately 10^6 cells/mL. During cell plating, following the cell passage method, 1/5 of the cell suspension was retained for continued culture, and the remaining 4/5 of the cell suspension was placed in a 15 mL centrifuge tube. Cell viability was determined using the trypan blue exclusion method to ensure that cell viability was above 90%. A cell suspension with a density of 1.11 × 10^5 viable cells/mL was prepared using complete culture medium. 90 µL of the cell suspension was added to a 96-well cell culture plate, resulting in a cell density of 10000 viable cells/well. A control group without cells and without compounds, containing only complete culture medium (i.e., culture medium control) and a control group without compounds but containing cells (i.e., cell control) were set up. The cell plate was incubated overnight in the cell culture incubator. First, a 10 mM stock solution of the compound (Example compound and positive control compound 11a-1) in DMSO was serially diluted with DMSO at a 3-fold dilution, down to the 9th concentrations. A 10th concentration containing only DMSO (without the compound) was also prepared as a control. Then, the DMSO solutions containing different concentrations of the compound were diluted 100-fold with complete culture medium, resulting in a DMSO concentration of 1% in each solution. Finally, 10 µL of each solution was added to the corresponding wells of a cell culture plate, resulting in an initial compound concentration of 10 µM, with a 3-fold dilution between adjacent concentrations, and a DMSO concentration of 0.1% in the cell culture plate. The cell plate was then incubated in a cell culture incubator for 72 hours.
For endpoint detection, CellTiter-Glo reagent (Promega, catalog number #G7573, CellTiter-Glo® Luminescent Cell Viability Assay Kit) was melt and each cell plate was moved to room temperature for equilibration for 30 minutes. 75 µL (KYSE520 cells) or 50 µL (MeWo cells and MV 4-11 cells) of CellTiter-Glo was added to each well of the corresponding cell plate. The plates were shaken on a track-mounted shaker for 2 minutes to fully lyse the cells. The cell plates were kept at room temperature for 8 minutes to stabilize the luminescence signal. A multi-mode microplate reader (PerkinEImer, Envision 2105 Multimode plate Read) was used to full-wavelength scan the luminescence value of each well. […]
On to `O=C(Nc1ccc(-c2cc3cc(F)c(-c4nnn[nH]4)cc3n2C2CCC2)cc1)C(=O)Nc1ccc(N2CCC(CO)C2)cc1` (stereo not drawn) [Example 12], for which the IC50 turned out to be 0.262 µM.

Regarding `O=C(Nc1ccc(-c2cc3cc(F)c(-c4nnn[nH]4)cc3n2C2CCC2)cc1)C(=O)Nc1ccc(N2CC3(CCOCC3)C2)cc1` [Example 57], the IC50 was found to be 0.127 µM.

Turning to `O=C(Nc1ccc(-c2cc3cc(F)c(-c4nnn[nH]4)cc3n2C2CCC2)cc1)C(=O)Nc1ccc(N2CCC3(CCC(O)C3)C2)cc1` (stereo not drawn) [Example 92], the IC50 worked out at 0.123 µM.

For `CC1(n2c(-c3ccc(NC(=O)C(=O)Nc4ccc(-c5cnn(C6CCOCC6)c5)cc4)cc3)cc3cc(F)c(-c4nnn[nH]4)cc32)CC1` [Example 7], the IC50 came to 0.254 µM.

For the compound `O=C(Nc1ccc(-c2cc3cc(F)c(-c4nnn[nH]4)cc3n2C2CCC2)cc1)C(=O)Nc1ccc(N2CC3COCC3C2)cc1` (stereo not drawn) [Example 114], the half-inhibitory concentration (IC50) worked out at 0.156 µM.

Regarding `CC1(n2c(-c3ccc(NC(=O)C(=O)Nc4ccc(N5CCC6(CCOCC6)CC5)cc4)cc3)cc3cc(F)c(-c4nnn[nH]4)cc32)CCC1` [Example 77], the IC50 came to 0.094 µM.

As for `CC1(O)CCC2(CCN(c3ccc(NC(=O)C(=O)Nc4ccc(-c5cc6cc(F)c(-c7nnn[nH]7)cc6n5C5CCC5)cc4)cc3)CC2)CC1` [Example 110], the concentration for half-maximal inhibition (IC50) amounted to 0.133 µM.

For the compound `CC1(n2c(-c3ccc(NC(=O)C(=O)Nc4ccc(N5CCC6(CCOC6)CC5)cc4)cc3)cc3cc(F)c(-c4nnn[nH]4)cc32)CC1` [Example 70], the IC50 came out at 4.25 µM.

Take `O=C(Nc1ccc(-c2cc3cc(F)c(-c4nnn[nH]4)cc3n2C2CCC2)cc1)C(=O)Nc1ccc(N2CCC(CCO)CC2)cc1` [Example 25]: the IC50 turned out to be 0.108 µM.

Consider `CC1(n2c(-c3ccc(NC(=O)C(=O)Nc4ccc(N5CCC6(CC5)CC(CO)C6)cc4)cc3)cc3cc(F)c(-c4nnn[nH]4)cc32)CCC1` [Example 97], for which the IC50 came to 0.305 µM.

Take `Cn1c(-c2cccc(NC(=O)C(=O)Nc3ccc(-c4ccsc4)cc3)c2)c(I)c2cc(C(=O)O)c(O)cc21` [Example 11a-1, reference compound]: the IC50 stood at 5.13 µM.

As for `O=C(Nc1ccc(-c2cc3cc(F)c(-c4nnn[nH]4)cc3n2C2CCC2)cc1)C(=O)Nc1ccc(N2CCC3(CC2)CC(CO)C3)cc1` [Example 96], the IC50 is greater than 10 µM.

The test system of the next assay is MeWo. Briefly: CellTiter-Glo cell proliferation inhibition, MeWo. The format is cell-based, human. The following applies: Homo sapiens, MeWo, 72 h, MeWo cells, CellTiter-Glo. The procedure: as §1
Using essentially the same experimental materials, MeWo cells (ATCC, catalog #HTB-65) were treated similarly: when thawing the cells, the cryovial was rapidly shaken in a 37 °C water bath to thaw the cells within 1 minute. The thawed cell suspension was mixed with MEM/EBSS culture medium containing 10% FBS (HyClone, catalog #SH30024.01), centrifuged at 1000 rpm for 5 minutes, and the supernatant was discarded. The cell pellet was resuspended in 5 mL of complete culture medium (MEM/EBSS medium containing 10% FBS), placed in a cell culture flask with 25 cm^2 of bottom area, and cultured in a cell culture incubator at 37 °C, 95% humidity, and 5% CO2. Cell passaging was performed when the cell confluence reached approximately 80%. During cell passaging, the old culture medium was discarded, the cells were washed once with DPBS, and 1 mL of trypsin was added to digest the cells. When the cells dispersed into single cells and detached from the bottom of the cell culture flask, 3 mL of new complete culture medium was added to stop the digestion. After thoroughly mixing the cell suspension, 1/5 of the cell suspension was retained, 5 mL of new complete culture medium was added, and after thorough mixing, the cells were placed in a cell culture flask for further culture. Cell plating was performed when the cell confluence again reached approximately 80%. During cell plating, following the cell passaging method, 1/5 of the cell suspension was retained for further culture, and the remaining 4/5 of the cell suspension was placed in a 15 mL centrifuge tube. Cell viability was determined using the trypan blue exclusion method to ensure that cell viability was above 90%. A cell suspension with a density of 2.22 × 10^4 cells/mL was prepared using MEM/EBSS culture medium containing 5% FBS. 90 µL of the cell suspension was added to a 96-well cell culture plate, resulting in a cell density of 2000 viable cells/well in the cell culture plate. A control group without cells and without compounds, containing only complete culture medium (i.e., culture medium control), and a control group without compounds but containing cells (i.e., cell control) were set up. The cell plate was cultured overnight in the cell culture incubator. First, a 10 mM stock solution of the compound (Example compound and positive control compound 11a-1) in DMSO was serially diluted with DMSO at a 3-fold dilution, down to the 9th concentration. A 10th concentration containing only DMSO (without the compound) was also prepared as a control. Then, the DMSO solutions containing different concentrations of the compound were diluted 100-fold with complete culture medium, resulting in a 1% DMSO concentration in each solution. Finally, 10 µL of each solution was added to the corresponding wells of the cell culture plate, resulting in a starting compound concentration of 10 µM, with a 3-fold dilution between adjacent concentrations, and a 0.1% DMSO concentration in the cell culture plate. The cell plates were then incubated in a cell culture incubator for 72 hours.
For endpoint detection, CellTiter-Glo reagent (Promega, catalog number #G7573, CellTiter-Glo® Luminescent Cell Viability Assay Kit) was melt and each cell plate was moved to room temperature for equilibration for 30 minutes. 75 µL (KYSE520 cells) or 50 µL (MeWo cells and MV 4-11 cells) of CellTiter-Glo was added to each well of the corresponding cell plate. The plates were shaken on a track-mounted shaker for 2 minutes to fully lyse the cells. The cell plates were kept at room temperature for 8 minutes to stabilize the luminescence signal. […]
In the case of `O=C(Nc1ccc(-c2cc3cc(F)c(-c4nnn[nH]4)cc3n2C2CCC2)cc1)C(=O)Nc1ccc(N2CCC(CO)C2)cc1` (stereo not drawn) [Example 12], the IC50 came to 0.082 µM.

Take `O=C(Nc1ccc(-c2cc3cc(F)c(-c4nnn[nH]4)cc3n2C2CCC2)cc1)C(=O)Nc1ccc(N2CC3(CCOCC3)C2)cc1` [Example 57]: 0.096 µM corresponded to half-maximal inhibition (IC50).

Consider `O=C(Nc1ccc(-c2cc3cc(F)c(-c4nnn[nH]4)cc3n2C2CCC2)cc1)C(=O)Nc1ccc(N2CCC3(CCC(O)C3)C2)cc1` (stereo not drawn) [Example 92], for which the half-maximal inhibitory concentration (IC50) was determined as 0.098 µM.

For the compound `CC1(n2c(-c3ccc(NC(=O)C(=O)Nc4ccc(-c5cnn(C6CCOCC6)c5)cc4)cc3)cc3cc(F)c(-c4nnn[nH]4)cc32)CC1` [Example 7], the IC50 was 0.111 µM.

With `O=C(Nc1ccc(-c2cc3cc(F)c(-c4nnn[nH]4)cc3n2C2CCC2)cc1)C(=O)Nc1ccc(N2CC3COCC3C2)cc1` (stereo not drawn) [Example 114], the IC50 came to 0.078 µM.

In the case of `CC1(n2c(-c3ccc(NC(=O)C(=O)Nc4ccc(N5CCC6(CCOCC6)CC5)cc4)cc3)cc3cc(F)c(-c4nnn[nH]4)cc32)CCC1` [Example 77], half-maximal inhibition (IC50) was put at 0.034 µM.

On to `CC1(O)CCC2(CCN(c3ccc(NC(=O)C(=O)Nc4ccc(-c5cc6cc(F)c(-c7nnn[nH]7)cc6n5C5CCC5)cc4)cc3)CC2)CC1` [Example 110], for which the IC50 was 0.086 µM.

Compound `CC1(n2c(-c3ccc(NC(=O)C(=O)Nc4ccc(N5CCC6(CCOC6)CC5)cc4)cc3)cc3cc(F)c(-c4nnn[nH]4)cc32)CC1` [Example 70] came in with a 50% inhibitory concentration (IC50) of 0.213 µM.

In turn, `O=C(Nc1ccc(-c2cc3cc(F)c(-c4nnn[nH]4)cc3n2C2CCC2)cc1)C(=O)Nc1ccc(N2CCC(CCO)CC2)cc1` [Example 25] showed an IC50 of 0.04 µM.

Compound `CC1(n2c(-c3ccc(NC(=O)C(=O)Nc4ccc(N5CCC6(CC5)CC(CO)C6)cc4)cc3)cc3cc(F)c(-c4nnn[nH]4)cc32)CCC1` [Example 97] had an IC50 of 0.11 µM.

The compound `Cn1c(-c2cccc(NC(=O)C(=O)Nc3ccc(-c4ccsc4)cc3)c2)c(I)c2cc(C(=O)O)c(O)cc21` [Example 11a-1, reference compound] came in with an IC50 of 3.1 µM.

With `O=C(Nc1ccc(-c2cc3cc(F)c(-c4nnn[nH]4)cc3n2C2CCC2)cc1)C(=O)Nc1ccc(N2CCC3(CC2)CC(CO)C3)cc1` [Example 96], the IC50 worked out at 0.103 µM.
